# In PubChem BioAssay (NCI):
#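 Tested at 5 concentrations; 48 h exposure; 96-well plates; endpoints linearly interpolated, else capped at highest concentration. At the TGI there is no net growth.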
# Assays:
# Experiment in all cases: inhibition of tumour cell growth, NCI panel, 48 h
# SK-MEL-28 melanoma = test system: SK-MEL-28 melanoma
# NCI-H522 lung = test system: NCI-H522 lung
# SR leukemia = test system: SR leukemia
# HCT-15 colon = test system: HCT-15 colon
# 786-0 renal = test system: 786-0 renal
# SF-295 CNS = test system: SF-295 CNS
# EKVX NSCLC = test system: EKVX NSCLC
# HOP-92 NSCLC = test system: HOP-92 NSCLC
# A549 NSCLC = test system: A549 NSCLC
# SW-620 colon = test system: SW-620 colon
# HCT-116 colon = test system: HCT-116 colon
# OVCAR-8 ovarian = test system: OVCAR-8 ovarian
# OVCAR-3 ovarian = test system: OVCAR-3 ovarian
# MDA-MB-435 = test system: MDA-MB-435
# SNB-75 CNS = test system: SNB-75 CNS
# NCI-H460 lung = test system: NCI-H460 lung
# U251 CNS = test system: U251 CNS
# NCI-H226 lung = test system: NCI-H226 lung
# KM12 colon = test system: KM12 colon
# HT29 colon = test system: HT29 colon
# M14 melanoma = test system: M14 melanoma
# OVCAR-5 ovarian = test system: OVCAR-5 ovarian
# BT-549 breast = test system: BT-549 breast
# ACHN renal = test system: ACHN renal
# SK-MEL-5 melanoma = test system: SK-MEL-5 melanoma
# UACC-62 melanoma = test system: UACC-62 melanoma
# NCI-H23 lung = test system: NCI-H23 lung
# UACC-257 melanoma = test system: UACC-257 melanoma
# COLO 205 colon = test system: COLO 205 colon
# IGROV1 ovarian = test system: IGROV1 ovarian
# NCI/ADR-RES ovarian = test system: NCI/ADR-RES ovarian
# HCC-2998 colon = test system: HCC-2998 colon
# UO-31 renal = test system: UO-31 renal
# DU-145 prostate = test system: DU-145 prostate
# RPMI-8226 leukemia = test system: RPMI-8226 leukemia
# K-562 leukemia = test system: K-562 leukemia
# HOP-62 NSCLC = test system: HOP-62 NSCLC
# RXF 393 renal = test system: RXF 393 renal
# CAKI-1 renal = test system: CAKI-1 renal
# MDA-MB-231 breast = test system: MDA-MB-231 breast
# OVCAR-4 ovarian = test system: OVCAR-4 ovarian
# MCF7 breast = test system: MCF7 breast
# SF-539 CNS = test system: SF-539 CNS
# SN12C renal = test system: SN12C renal
# HS 578T breast = test system: HS 578T breast
# MOLT-4 leukemia = test system: MOLT-4 leukemia
# SK-OV-3 ovarian = test system: SK-OV-3 ovarian
# SNB-19 CNS = test system: SNB-19 CNS
# SF-268 CNS = test system: SF-268 CNS
# PC-3 prostate = test system: PC-3 prostate
# SK-MEL-2 melanoma = test system: SK-MEL-2 melanoma
# MDA-N = test system: MDA-N
# LOX IMVI melanoma = test system: LOX IMVI melanoma
# TK-10 renal = test system: TK-10 renal
# A498 renal = test system: A498 renal
# HL-60(TB) leukemia = test system: HL-60(TB) leukemia
# T-47D breast = test system: T-47D breast
compound,measurement,setting,value
C/C(=N\Nc1nc2ccccc2s1)c1cccnn1,TGI,SK-MEL-28 melanoma,> 100 µM
same,TGI,NCI-H522 lung,17.7 µM
same,TGI,SR leukemia,52.5 µM
same,TGI,HCT-15 colon,> 100 µM
same,TGI,786-0 renal,> 100 µM
same,TGI,SF-295 CNS,7.2 µM
same,TGI,EKVX NSCLC,33.5 µM
same,TGI,HOP-92 NSCLC,14.3 µM
same,TGI,A549 NSCLC,> 100 µM
same,TGI,SW-620 colon,> 100 µM
same,TGI,HCT-116 colon,25.5 µM
same,TGI,OVCAR-8 ovarian,12.2 µM
same,TGI,OVCAR-3 ovarian,> 100 µM
same,TGI,MDA-MB-435,> 100 µM
same,TGI,SNB-75 CNS,30.7 µM
same,TGI,NCI-H460 lung,15.1 µM
same,TGI,U251 CNS,> 100 µM
same,TGI,NCI-H226 lung,59.3 µM
same,TGI,KM12 colon,> 100 µM
same,TGI,HT29 colon,> 100 µM
same,TGI,M14 melanoma,88.7 µM
same,TGI,OVCAR-5 ovarian,> 100 µM
same,TGI,BT-549 breast,60 µM
same,TGI,ACHN renal,17 µM
same,TGI,SK-MEL-5 melanoma,> 100 µM
same,TGI,UACC-62 melanoma,20 µM
same,TGI,NCI-H23 lung,20.2 µM
same,TGI,UACC-257 melanoma,> 100 µM
same,TGI,COLO 205 colon,> 100 µM
same,TGI,IGROV1 ovarian,15.5 µM
same,TGI,NCI/ADR-RES ovarian,8.69 µM
same,TGI,HCC-2998 colon,89.9 µM
same,TGI,UO-31 renal,71.2 µM
same,TGI,DU-145 prostate,> 100 µM
same,TGI,RPMI-8226 leukemia,> 100 µM
same,TGI,K-562 leukemia,> 100 µM
same,TGI,HOP-62 NSCLC,14.5 µM
same,TGI,RXF 393 renal,84.5 µM
same,TGI,CAKI-1 renal,> 100 µM
same,TGI,MDA-MB-231 breast,36.2 µM
same,TGI,OVCAR-4 ovarian,> 100 µM
same,TGI,MCF7 breast,> 100 µM
same,TGI,SF-539 CNS,17.7 µM
same,TGI,SN12C renal,> 100 µM
same,TGI,HS 578T breast,44.1 µM
same,TGI,MOLT-4 leukemia,> 100 µM
same,TGI,SK-OV-3 ovarian,52.3 µM
same,TGI,SNB-19 CNS,> 100 µM
same,TGI,SF-268 CNS,20.1 µM
same,TGI,PC-3 prostate,> 100 µM
same,TGI,SK-MEL-2 melanoma,36.8 µM
same,TGI,MDA-N,> 100 µM
CC1=C(C(=O)NNC(=O)CC#N)CC(C(=O)NNC(=O)CC#N)=C(C)N1,TGI,SK-MEL-28 melanoma,> 100 µM
same,TGI,HCT-15 colon,> 100 µM
same,TGI,786-0 renal,> 100 µM
same,TGI,SF-295 CNS,> 100 µM
same,TGI,EKVX NSCLC,> 100 µM
same,TGI,HOP-92 NSCLC,> 100 µM
same,TGI,LOX IMVI melanoma,> 100 µM
same,TGI,A549 NSCLC,> 100 µM
same,TGI,SW-620 colon,> 100 µM
same,TGI,HCT-116 colon,> 100 µM
same,TGI,OVCAR-8 ovarian,> 100 µM
same,TGI,OVCAR-3 ovarian,> 100 µM
same,TGI,MDA-MB-435,> 100 µM
same,TGI,SNB-75 CNS,> 100 µM
same,TGI,NCI-H460 lung,> 100 µM
same,TGI,U251 CNS,> 100 µM
same,TGI,NCI-H226 lung,> 100 µM
same,TGI,KM12 colon,> 100 µM
same,TGI,HT29 colon,> 100 µM
same,TGI,M14 melanoma,> 100 µM
same,TGI,OVCAR-5 ovarian,> 100 µM
same,TGI,TK-10 renal,> 100 µM
same,TGI,BT-549 breast,> 100 µM
same,TGI,ACHN renal,> 100 µM
same,TGI,A498 renal,> 100 µM
same,TGI,SK-MEL-5 melanoma,> 100 µM
same,TGI,NCI-H23 lung,> 100 µM
same,TGI,UACC-257 melanoma,> 100 µM
same,TGI,COLO 205 colon,> 100 µM
same,TGI,IGROV1 ovarian,> 100 µM
same,TGI,NCI/ADR-RES ovarian,> 100 µM
same,TGI,HCC-2998 colon,> 100 µM
same,TGI,UO-31 renal,> 100 µM
same,TGI,DU-145 prostate,> 100 µM
same,TGI,HOP-62 NSCLC,> 100 µM
same,TGI,RXF 393 renal,> 100 µM
same,TGI,CAKI-1 renal,> 100 µM
same,TGI,MDA-MB-231 breast,> 100 µM
same,TGI,OVCAR-4 ovarian,> 100 µM
same,TGI,MCF7 breast,> 100 µM
same,TGI,SF-539 CNS,> 100 µM
same,TGI,SN12C renal,> 100 µM
same,TGI,MOLT-4 leukemia,> 100 µM
same,TGI,HL-60(TB) leukemia,> 100 µM
same,TGI,SK-OV-3 ovarian,> 100 µM
same,TGI,SNB-19 CNS,> 100 µM
same,TGI,SF-268 CNS,> 100 µM
same,TGI,T-47D breast,> 100 µM
same,TGI,SK-MEL-2 melanoma,> 100 µM
same,TGI,MDA-N,> 100 µM
